Test results from patent US11413278B2, “Compounds and methods for promoting stress resistance” (priority 2015, dated 2022).
Where two headings read alike, the source gives them in different places.

Columns and labels:
WI-38 cells [1] = assay: CdCl2 (cadmium) resistance assay; type: cell-based, human; details: for fold induction at 10 µM: Homo sapiens, 12 h, normalized ATP measurement; for Assay 4: H2O2- & Cd-resistant / Assay 2: Cadmium-resistant: YES/NO; for Assay 2: Cadmium-resistant: * indicates partial
Method in brief: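 WI-38 cells were given compounds at five final concentrations (0.25–20 μM) in triplicate, followed by cadmium or MMS for 12 h. For MMS, medium was switched from OptiMEM+10% FBS to serum-free DMEM+2% BSA when compounds were added, 24 h before stressor. Two independent assays were run, analysed by global variance t-test.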

FOXO3 = FOXO3 siRNA knockdown: dependency for H2O2-resistance; type: cell-based, human; details: for FOXO3-dependency for H2O2-resistance (experiment 3): with & without H2O2, FOXO3 knockdown in WI-38 cells; for Assay 16: FOXO3-dependency for H2O2-resistance: YES/NO; for Requirement of FOXO3 to promote H2O2-resistance: FOXO3 siRNA, at least 2 of 3 independent experiments
C. elegans = C. elegans lifespan assays (liquid and plate); type: in vivo, Caenorhabditis elegans; details: for ILS at 60 µM / ILS at 66 µM: Caenorhabditis elegans; for Extension of C. elegans' lifespan (qualitative): in at least 3 to 4 trials, group range ~10% to ~50%; for O = Life span- extending scores in worms: score scale 0 to 2, 4 to 6 independent trials; for M = Lifespan-extending scores in worms: summary score
WI-38 cells [2] = details: for Percentage of propidium iodide-positive dead cells (no H2O2 stress treatment), at 10 uM: negative control 0.41% ± 0.23%; for PI cell-death imaging without H2O2 (indicating potential toxicity): Assay 8(k), without H2O2, at 10 uM; for PI-positive dead cells under normal conditions: control 0.4±0.2%
Method: WI-38 cells were seeded on 384-well plates for 24 hrs and then incubated with small molecules for 24 hrs. […] Images were collected on an INCell Analyzer 2000 (GE) and analyzed with the Developer software.

[3] = Exp. 1, WI-38 cells, read-out: Exp. 1, under Cd2Cl2 stress treatment, at 10 uM (fold change)
[4] = Exp. 2, WI-38 cells, read-out: Exp. 2, under Cd2Cl2 stress treatment, at 10 uM (fold change)
[5] = WI-38 cells, 10 μM, both stressors
[6] = score in summary of 38 core set hits
[7] = 60 μM, in liquid, wild type, with FuDR, 1.0 × 10^9 bacteria/ml, read-out: relative change of mean lifespan vs control, Trial 1
[8] = 60 μM, in liquid, wild type, with FuDR, 2.5 × 10^9 bacteria/ml, read-out: relative change of mean lifespan vs control, Trial 2
[9] = 60 μM, on plate, CF512 temperature-sensitive sterile animals, without FuDR, 2.0 × 10^10 bacteria/ml, read-out: relative change of mean lifespan vs control, Trial 3
[10] = Assay 2(z), 1.0 × 10^9 bacteria/ml, wild type + FuDR (2012 July), read-out: Lifespan assay in liquid
[11] = Assay 3(aa), 2.5 × 10^9 bacteria/ml, wild type + FuDR, read-out: Lifespan assay in liquid
[12] = Assay 4(ab), 2.0 × 10^10 bacteria/ml, CF512 worms, no FuDR, read-out: Lifespan assay on plates
[13] = 10 uM, YES = resistance reduced by at least 50%, partial = 25% to 50%
[14] = 10 uM, with H2O2, FOXO3 knockdown in WI-38 cells, YES = resistance reduced by at least 50%, partial = 25% to 50%

Compound | fold induction at 10 µM (WI-38 cells [1]; [3]) | fold induction at 10 µM (WI-38 cells [1]; [4]) | Assay 4: H2O2- & Cd-resistant (WI-38 cells [1]) | Assay 2: Cadmium-resistant (WI-38 cells [1]) | A = Cadmium resistant (WI-38 cells [1]; [6]) | A = Cadmium resistant (WI-38 cells [1]; summary score) | C = H2O2- & Cd-resistant (WI-38 cells [1]; summary score) | I = FOXO3-dependency for H2O2-resistance (FOXO3; score) | I = FOXO3-dependency for H2O2-resistance (FOXO3; summary score) | ILS at 60 µM (C. elegans; [7]) [%] | ILS at 60 µM (C. elegans; [8]) [%] | ILS at 60 µM (C. elegans; [9]) [%] | ILS at 66 µM (C. elegans; [10]) [%] | ILS at 66 µM (C. elegans; [11]) [%] | ILS at 66 µM (C. elegans; [12]) [%] | O = Life span- extending scores in worms (C. elegans) | M = Lifespan-extending scores in worms (C. elegans) | Percentage of propidium iodide-positive dead cells (no H2O2 stress treatment), at 10 uM (WI-38 cells [2]) | FOXO3-dependency for H2O2-resistance, at 10 uM (experiment 3) - with & without H2O2 (FOXO3; 10 uM) | FOXO3-dependency for H2O2-resistance (experiment 3) (FOXO3; [13]) | further results
Oc1ncnc2sc3c(c12)CCC3 [O14] | 2.2 | 2.69 | YES | YES | 1 | 1 | 1 | 0 | 0 | 13.7 | 5.8 | 11.3 | 13.7 | 5.8 | 11.3 | 2 (2 for observed in more than 2 trials) | 2 (2 for observed in more than 2 trials) | 0.41% ± 0.22%, | – | – | CdCl2-resistant (WI-38 cells [1]): YES; H2O2- & CdCl2-resistant (WI-38 cells [1]): YES; CdCl2-resistant (WI-38 cells [1]; WI-38 cells, 10 μM): YES; H2O2- & CdCl2-resistant (WI-38 cells [1]; [5]): YES; Lifespan extension of C. elegans (C. elegans; across independent trials): ≥ 10%; Extension of C. elegans' lifespan (qualitative) (C. elegans): could extend animal's lifespan; Trials with lifespan extension (C. elegans; positive of total trials): 3 of 3
CCCN1C/C(=C\c2ccc(F)cc2)C(=O)/C(=C/c2ccc(F)cc2)C1 [O15] | 0.18 | 0.57 | YES | YES | 0 | 1 | 1 | 1 | 1 | 38 | 6.6 | 14.6 | 38 | 6.6 | 14.6 | 1 (1 for lifespan extension observed in 2 trials) | 1 (1 for lifespan extension observed in 2 trials) | 3.76% ± 0.68%, | YES | YES | FOXO3-dependency for H2O2-resistance, at 10 uM - with H2O2, 1st experiment (FOXO3; 10 uM, experiment 1 (1st), with H2O2): 1st, YES;; FOXO3-dependency for H2O2-resistance, 1st experiment (FOXO3; [14]): YES;; Assay 16: FOXO3-dependency for H2O2-resistance (FOXO3; 10 uM): YES; Requirement of FOXO3 to promote H2O2-resistance (FOXO3): required FOXO3; PI cell-death imaging without H2O2 (indicating potential toxicity) (WI-38 cells [2]): YES; PI-positive dead cells under normal conditions (WI-38 cells [2]; WI-38, no H2O2): 3.8%±0.7%
[O-][n+]1onc2c3nsnc3c(Br)cc21 [O17] | 0.95 | 1.35 | – | – | 0 | 0 | 0 | 0 | 0 | 1.7 | 22.6 | 19.7 | 1.7 | 22.6 | 19.7 | 2 (2 for observed in more than 2 trials) | 2 (2 for observed in more than 2 trials) | 0.56% ± 0.25%, | – | – | relative change of mean lifespan vs control, Trial 6 (confirmative) (C. elegans; 60 μM, on plate, temperature-sensitive sterile animals, without FuDR, 1.0 × 10^11 bacteria/ml): +20.8%; relative change of mean lifespan vs control, Trial 5 (confirmative) (C. elegans; 60 μM, on plate, temperature-sensitive sterile animals, without FuDR, 2.0 × 10^10 bacteria/ml): +15.2%; ILS at 60 µM (C. elegans; 60 μM, on plate, CF512 temperature-sensitive sterile animals, without FuDR, 1.0 × 10^11 bacteria/ml, read-out: relative change of mean lifespan vs control, Trial 4): 17.8%; ILS at 66 µM (C. elegans; Assay 5(ac), 1.0 × 10^11 bacteria/ml, CF512 worms, no FuDR, read-out: Lifespan assay on plates): 17.8%; ILS at 66 µM (C. elegans; Assay 6(ad), 2.0 × 10^10 bacteria/ml, CF512 worms, no FuDR, read-out: Lifespan assay on plates): 15.2%; ILS at 66 µM (C. elegans; Assay 7(ae), 1.0 × 10^11 bacteria/ml, CF512 worms, no FuDR, read-out: Lifespan assay on plates): 20.8%; Extension of C. elegans' lifespan (qualitative) (C. elegans): could extend animal's lifespan
Cc1cc(C)c(C(=O)/C=C/c2ccccc2F)c(O)n1 [O18] | 1.5 | 1.24 | YES | YES | 0 | 1 | 1 | 0 | 0 | 22.1 | 11.8 | 3.8 | 22.1 | 11.8 | 3.8 | 1 (1 for lifespan extension observed in 2 trials) | 1 (1 for lifespan extension observed in 2 trials) | 0.36% ± 0.16%, | YES | YES | –
COC(=O)CCc1sc2c(c1[N+](=O)[O-])NC(=O)CCC2 [O20] | 6.37 | 4 | YES | YES | 1 | 1 | 1 | 1 | 1 | 18.8 | 3.4 | 11.3 | 18.8 | 3.4 | 11.3 | 1 (1 for lifespan extension observed in 2 trials) | 1 (1 for lifespan extension observed in 2 trials) | 0.73% ± 0.25%, | YES | YES | CdCl2-resistant (WI-38 cells [1]): YES; H2O2- & CdCl2-resistant (WI-38 cells [1]): YES; CdCl2-resistant (WI-38 cells [1]; WI-38 cells, 10 μM): YES; H2O2- & CdCl2-resistant (WI-38 cells [1]; [5]): YES; FOXO3-dependency for H2O2-resistance, at 10 uM - with H2O2, 2nd experiment (FOXO3; 10 uM, experiment 2 (2nd), with H2O2): 2nd, YES.; FOXO3-dependency for H2O2-resistance, 2nd experiment (FOXO3; [14]): YES.; Assay 16: FOXO3-dependency for H2O2-resistance (FOXO3; 10 uM): YES; Requirement of FOXO3 to promote H2O2-resistance (FOXO3): required FOXO3; PI cell-death imaging without H2O2 (indicating potential toxicity) (WI-38 cells [2]): YES; PI-positive dead cells under normal conditions (WI-38 cells [2]; WI-38, no H2O2): 0.7%±0.3%
COc1ccc(/C=C2\SC(=N)N(c3nccs3)C2=O)cc1 [O21] | 0.03 | 0.04 | – | – | 0 | 0 | 0 | 0 | 0 | 7.9 | -0.5 | 12.2 | 7.9 | -0.5 | 12.2 | 0 | 0 | 1.09% ± 0.39%, | YES | YES | PI cell-death imaging without H2O2 (indicating potential toxicity) (WI-38 cells [2]): YES; Percentage of propidium iodide-positive (dead) cells under normal conditions (qualitative) (WI-38 cells [2]; WI-38, no H2O2): increased the percentage; PI-positive dead cells under normal conditions (WI-38 cells [2]; WI-38, no H2O2): 1.1±0.4%
CC(C)(C)c1ccc(OCC(=O)Nc2ccc3c4c(cccc24)C(=O)NC3=O)cc1 [O22] | 5.61 | 14.7 | YES | YES | 1 | 1 | 1 | 0 | 0 | -24.5 | -2.3 | -52.8 | -24.5 | -2.3 | -52.8 | 0 | 0 | 0.37% ± 0.14%, | – | – | CdCl2-resistant (WI-38 cells [1]): YES; H2O2- & CdCl2-resistant (WI-38 cells [1]): YES; CdCl2-resistant (WI-38 cells [1]; WI-38 cells, 10 μM): YES; H2O2- & CdCl2-resistant (WI-38 cells [1]; [5]): YES
